The values that follow are results of earlier work, collected in US12357549B2, “Method for dyeing keratinous material, comprising the use of an organosilicon compound, a dyeing compound, a sealing reagent, and a pre-treatment agent” (Henkel AG & Co. KGaA, priority 2021, dated 2025).

For this data set the following is noted: 25° C.

Each structure is given as a SMILES string.

On to `CCN(Cc1cccc(S(=O)(=O)[O-])c1)c1ccc(C(=C2C=CC(=[N+](CC)Cc3cccc(S(=O)(=O)[O-])c3)C=C2)c2ccccc2S(=O)(=O)[O-])cc1.[Na+].[Na+]` [Acid Blue 9], for which the water solubility entry was “more than 20 wt %”. Turning to `O=S(=O)([O-])c1ccc(N=Nc2c(O)ccc3ccccc23)cc1.[Na+]` [Acid Orange 7, sodium salt of 4-[(2-hydroxy-1-naphthyl)azo]benzenesulfonate], the solubility in water result is on record as “more than 7 g/L”. `Nc1cc(S(=O)(=O)[O-])cc2cc(S(=O)(=O)[O-])c(N=Nc3ccccc3)c(O)c12.[Na+].[Na+]` [Acid Red 33, disodium salt of 5-amino-4-hydroxy-3-(phenylazo)-naphthalene-2,7-disulfonate]: the solubility in water is 2500 µg/mL. `O=C([O-])c1c(Cl)c(Cl)c(Cl)c(Cl)c1-c1c2c(Br)cc(=O)c(Br)c-2oc2c(Br)c(O)cc(Br)c12.O=C([O-])c1c(Cl)c(Cl)c(Cl)c(Cl)c1-c1c2c(Br)cc(=O)c(Br)c-2oc2c(Br)c(O)cc(Br)c12.[Na+].[Na+]` [Acid Red 92, disodium salt of 3,4,5,6-tetrachloro-2-(1,4,5,8-tetrabromo-6-hydroxy-3-oxoxanthen-9-yl)benzoic acid]: the solubility in water result was “greater than 10 g/L”.

Regarding `O=C([O-])C1=NN(c2ccc(S(=O)(=O)[O-])cc2)C(=O)C1N=Nc1ccc(S(=O)(=O)[O-])cc1.[Na+].[Na+].[Na+]` (centres unmarked) [Acid Yellow 23, trisodium salt of 4,5-dihydro-5-oxo-1-(4-sulfophenyl)-4-((4-sulfophenyl)azo)-1H-pyrazole-3-carboxylic acid], the “solubility in water (in words)” value is “readily soluble in water”.
